1 compound from patent publication US20240182382A1, “ALIPHATIC 18F-RADIOLABELING OF A TETRAZINE PRECURSOR” (UNIVERSITY OF COPENHAGEN, priority 2021, published 2024) can be followed below.

One experiment deals with CC49-TCO. Briefly: Ex vivo blocking assay: blocking of [111In]Tz-Tg binding to CC49-TCO in LS174T tumor xenografts. Set-up: species or system nude BALB/c mice. The following applies: change in tumor uptake of [111In]Tz-Tg 22 h p.i.; Tz administered 1 h prior; normalized to non-blocked control; mean from n = 3 mice/group. On the procedure:
FIG. 3 show a schematic display of the blocking assay. The blocking effect of non-radiolabeled Tz was determined as the change in tumor uptake of [111 1n]Tz-Tg 22 h p.i. Each Tz was administered 1 h prior to [111 1n]Tz-Tg and the uptake normalized to a group of animals were no blocking was performed (control).
The inventors have recently developed a blocking assay that allows to assess the in vivo ligation performance of unlabeled tetrazine derivatives. This assay omits time-consuming development of radiolabeled tetrazines for every ligand to be tested. In this assay, binding of [^111In]Tz-Tg (see structure in example 7), a literature described pretargeted imaging agent, is blocked in vivo to the pretargeting vector CC49-TCO (described in Stéen, J.; Jørgensen, J. T.; Christoph, D.; Battisti, U. M.; Nørregaard, K.; Edem, P.; Bratteby, K.; Shalgunov, V.; Martin, W.; Svatunek, D.; Poulie, C. B. M.; Hvass, L.; Simon, M.; Thomas, W.; Rossin, R.; Robillard, M.; Kristensen, J. L.; Mikula, H.; Kjaer, A.; Herth, M. Lipophilicity and Click Reactivity Determine the Performance of Bioorthogonal Tetrazine Tools in Pretargeted in Vivo Chemistry; 2020 Dec. 24, 2020.), which was administered 72 h prior. The blocking effect of the unlabeled tetrazine derivatives is afterwards quantified via an ex vivo biodistribution study and normalized to the binding of [^111In]Tz-Tg determined without any blocking.
All animal studies were approved by the Danish Animal Welfare Council, ministry of Justice. Five weeks old female nude BALB/c mice (Charles River, Sulzfeld, Germany) were allowed to acclimatize for one week with access to water and chow ad libitum. Human colon cancer cell line (LS174T; obtained from ATCC) was cultured in minimum essential medium (MEM) supplemented with 10% fetal bovine serum, 1% L-glutamine, 1% sodium pyruvate, 1% non-essential amino acids, and 1% penicillin-streptomycin at 37° C. and 5% CO2. Cells were harvested by trypsinization at a confluence of 70-90% and subcutaneous tumors were established in the left flank of the 6 weeks old animals by inoculation of 5×10^6 LS174T cells resuspended in sterile PBS (100 μL) and allowed to grow for 7-10 days. Tumors were measured using a caliper and the volume calculated using the formula volume=1/2 (length×width 2).
Tumor-bearing animals were matched in groups based on their tumor volume (tumor volumes of ˜100-300 mm^3, n=3 in each group) and were administered 100 μg/100 μL of CC49-TCO (100 μg/100 μL, ˜7 TCO/mAb) per mouse. After 3 days, animals were injected with non-radioactive Tz (10-20 nmol). After 1 h, they were administered with IniTz-Tg (˜13 MBq/100 μL, 1-2 nmol) via the tail vein. [^111In]Tz-Tg was obtained and radiolabeled as previously described in Borjesson, P. K.; Jauw, Y. W.; de Bree, R.; Roos, J. C.; Castelijns, J. A.; Leemans, C. R.; van Dongen, G. A.; Boellaard, R. Radiation dosimetry of 89 Zr-labeled chimeric monoclonal antibody U36 as used for immuno-PET in head and neck cancer patients. J Nucl Med 2009, 50, 1828-36. The mice were euthanized after 22 h and tumor, blood, heart, lung, liver, spleen, kidney, and muscle were resected. All tissues were weighted, and the radioactivity measured in a gamma counter (Wizard2, Perkin Elmer) and data was corrected for decay, tissue weight and injected amount of radioactivity. FIG. 3 illustrate the workflow of the blocking assay.

A short description of experiment [1]: Reaction kinetics of tetrazines with TCO (stopped-flow, pseudo-first-order). It is filed as physicochemical. Particulars: Second order rate constants with TCO at 37° C. in PBS. On the procedure:
Reaction kinetics of tetrazines with standard TCO were determined using pseudo-first-order measurements with an excess of the TCO compound in PBS (pH=7.4) at 37.0±0.1° C. following the decrease of tetrazine absorbance at 535 nm. Measurements were performed in triplicates using an SX20 stopped-flow photometer (Applied Photophysics, UK) equipped with a 535 nm LED light source. Data analysis was performed using Prism 6 (Graphpad) to determine the observed rate constants which were converted into secondorder rate constants through dividing by the TCO concentration.
Second-order rate constants for the reaction with TCO in PBS at 37° C. were determined by pseudo-first order measurements in a SX20 stopped flow photometer (Applied Photophysics).

For `O=C(O)CN(CC(=O)O)Cc1ccc(-c2nnc(-c3ccc(OCCF)cn3)nn2)nc1` [Tz-Tg, reference compound], the “Normalized Tumor blocking effect” value with CC49-TCO is 99. Also, in experiment [1], the Rate constant is 73742 M⁻¹ s⁻¹.
